Results reported in patent US20130041036A1, “FERULIC ACID AS FEED SUPPLEMENT IN BEEF CATTLE TO PROMOTE ANIMAL GROWTH AND IMPROVE THE MEAT QUALITY OF THE CARCASS AND THE MEAT” (BIOKAB, S.A. DE C.V., priority 2011, published 2013).
“Also recorded” adds a separate entry of the source. Marks after values point to notes of the source that are not given here.

Tests used:
Longissimus dorsi muscle [1] = assay: Chemical and physicochemical quality of Longissimus dorsi muscle from supplemented cattle; format: in vivo, beef cattle of commercial breeds; settings: for SF: shear force: Warner-Bratzler; for L* value: fresh meat brightness; for a* value: fresh meat redness; for b* value: fresh meat yellowness; for pH: meat
Method: (§1) Subsequent to the carcass classification the rib eye cut (LD muscle) was obtained of the left side of each selected carcass. Meat samples were identified, vacuum packed, frozen at -18° C., and then shipped under refrigeration by air courier to the Centro de Investigación en Alimentacion y Desarrollo A.C. (CIAD) facilities at Hermosillo, Sonora, to perform quality analysis of the meat: Chemical analysis (moisture and fat content), physicochemical (objective color parameters L*, which measures the brightness of the meat, a* value, which measures the redness, and b* value which measures the tendency towards yellowness, and hue-angle, Warner-Bratzler shear force, water retention capacity and pH). A sensory test was done by a trained panel consisting of 10 members using a descriptive test with a semi-structured 10 cm scale, where zero indicates a […] of the attribute and a 10 indicates a favorable rating (e.g. tenderness, zero indicates extremely hard and 10 extremely tender). The sensory attributes that were measured: total color and overall appearance of raw meat, flavor, odor, color, tenderness, fat perception, juiciness, and perception of connective tissue in cooked meat. […] To measure cooking loss, the meat sample was weighed before and immediately after reaching the final cooking temperature, which was expressed in percentage. All data for response variables of the quality of carcass and meat were analyzed under a completely randomized design, with a one-way ANOVA, taking the experimental treatments as a fixed effect. For carcass BFT and REA characteristics the hot carcass weight was used as a covariable. Regarding the sensory attributes, the model also included the effect of panelist as the repeated measure. The variables of the shelf life study were analyzed as a completely randomized design with factorial arrangement, factor A being the treatment with 4 levels, and factor B, the storage time with 5 levels. When there were statistical differences (P<0.05) between treatments, average comparisons were performed by the multiple range test of Tukey.

Longissimus dorsi muscle [2] = assay: Sensory test of Longissimus dorsi meat by trained panel; format: in vivo, beef cattle of commercial breeds; settings: for Tenderness / Connective tissue perception / Fat perception / Flavor intensity / Juiciness / Odor intensity: cooked meat; for Tenderness: 10 cm scale, zero extremely hard, 10 extremely tender; for Connective tissue perception / Fat perception / Flavor intensity / Juiciness / Odor intensity / Appearance / Overall Color: semi-structured 10 cm scale; for Appearance / Overall Color: raw meat
Method: as §1

Longissimus dorsi muscle [3] = assay: Shelf life study of refrigerated meat (colour, TBARS); format: in vivo, beef cattle of commercial breeds; settings: for TBA values (lipid oxidation) during shelf life: FIG. 2
Method: In order to estimate the antioxidant effect of ferulic acid, 5 chops of the meat samples were taken (5 experimental units) of the respective treatments, which were packed with traditional packaging (film wrapped) and subjected to a refrigeration process from 4 and 5° C. for 10 days in a room equipped for this purpose. During the shelf life (Day 1, 3, 5, 7 and 9 of storage) the objective color parameters mentioned above, as well as determination of substances reactive to thiobarbituric acid (TBARS) were evaluated according to the methodology described by Pfalzgraf et al. (1995). TBA values were expressed as substances reactive to 2-thiobarbituric acid (TBARS) in mg malonaldehyde/kg sample.
All data for response variables of the quality of carcass and meat were analyzed under a completely randomized design, with a one-way ANOVA, taking the experimental treatments as a fixed effect. For carcass BFT and REA characteristics the hot carcass weight was used as a covariable. Regarding the sensory attributes, the model also included the effect of panelist as the repeated measure. The variables of the shelf life study were analyzed as a completely randomized design with factorial arrangement, factor A being the treatment with 4 levels, and factor B, the storage time with 5 levels. When there were statistical differences (P<0.05) between treatments, average comparisons were performed by the multiple range test of Tukey. All data was processed in the NCSS statistical package (NCSS, 2001).

pigs = pigs supplemented with 50 ppm of ferulic acid; cited from earlier work
[4] = 240 ppm ferulic acid (FA30) or 6 ppm zilpaterol hydrochloride (ZX), last 30 days of fattening
[5] = 240 ppm ferulic acid, last 60 days of fattening (FA60)
[6] = 240 ppm ferulic acid, last 60 days (FA60)
[7] = FA30 240 ppm or ZX 6 ppm, last 30 days of fattening
[8] = FA30 240 ppm or ZX 6 ppm, last 30 days of fattening, listed as FA30

COc1cc(/C=C/C(=O)O)ccc1O [ferulic acid, trans-4-hydroxy-3-methoxy cinnamic acid]
Cooking loss (Longissimus dorsi muscle [1]; [4]): 17.65^ab % | Fat content (Longissimus dorsi muscle [1]; [4]): 2.13% | Hue angle (Longissimus dorsi muscle [1]; [4]): 36.79 | Moisture (Longissimus dorsi muscle [1]; [4]): 73.10% | WHC: water holding capacity (Longissimus dorsi muscle [1]; [4]): 25.73% | Cooking loss (Longissimus dorsi muscle [1]; [5]): 19.65^b % | Fat content (Longissimus dorsi muscle [1]; [5]): 2.52% | Hue angle (Longissimus dorsi muscle [1]; [5]): 37.13 | Moisture (Longissimus dorsi muscle [1]; [5]): 73.41% | WHC: water holding capacity (Longissimus dorsi muscle [1]; [5]): 25.44% | SF: shear force (Longissimus dorsi muscle [1]; [4]): values significantly lower | SF: shear force (Longissimus dorsi muscle [1]; 240 ppm ferulic acid (FA30) or 6 ppm zilpaterol hydrochloride (ZX), last 30 days of fattening, listed as FA30): 7.94^a kg F | SF: shear force (Longissimus dorsi muscle [1]; [5]): 8.32^ab kg F | L* value (Longissimus dorsi muscle [1]; [4]): 36.66 | L* value (Longissimus dorsi muscle [1]; [5]): 35.74 | a* value (Longissimus dorsi muscle [1]; [4]): 16.86 | a* value (Longissimus dorsi muscle [1]; [5]): 17.55 | b* value (Longissimus dorsi muscle [1]; [4]): 12.53 | b* value (Longissimus dorsi muscle [1]; [5]): 13.22 | pH (Longissimus dorsi muscle [1]; [4]): 5.54 | pH (Longissimus dorsi muscle [1]; [5]): 5.57 | Tenderness (Longissimus dorsi muscle [2]; [6]): 7.54^ab | Tenderness (Longissimus dorsi muscle [2]; [7]): more tender | Tenderness (Longissimus dorsi muscle [2]; [8]): 7.68^b | Connective tissue perception (Longissimus dorsi muscle [2]; [6]): 1.50 | Fat perception (Longissimus dorsi muscle [2]; [6]): 3.62 | Flavor intensity (Longissimus dorsi muscle [2]; [6]): 7.32^ab | Juiciness (Longissimus dorsi muscle [2]; [6]): 6.76^ab | Odor intensity (Longissimus dorsi muscle [2]; [6]): 7.90 | Connective tissue perception (Longissimus dorsi muscle [2]; [7]): 1.57 | Fat perception (Longissimus dorsi muscle [2]; [7]): 3.22 | Flavor intensity (Longissimus dorsi muscle [2]; [7]): better flavored | Juiciness (Longissimus dorsi muscle [2]; [7]): juicier | Odor intensity (Longissimus dorsi muscle [2]; [7]): 8.05 | Flavor intensity (Longissimus dorsi muscle [2]; [8]): 7.73^b | Juiciness (Longissimus dorsi muscle [2]; [8]): 7.09^b | Appearance (Longissimus dorsi muscle [2]; [6]): 7.11 | Overall Color (Longissimus dorsi muscle [2]; [6]): 7.65 | Appearance (Longissimus dorsi muscle [2]; [7]): 7.41 | Overall Color (Longissimus dorsi muscle [2]; [7]): 7.51 | color parameter a* (redness) during shelf life (Longissimus dorsi muscle [3]; film wrapped meat at 4 and 5° C., days 1-9, 240 ppm ferulic acid last 30 days of fattening, FIG. 1, listed as FA30): delayed effect of the deterioration of the red color of the meat; also recorded: maintained the highest values of a* until day 7 of storage | TBA values (lipid oxidation) during shelf life (Longissimus dorsi muscle [3]; film wrapped meat at 4 and 5° C., days 1-9, 240 ppm ferulic acid last 30 days of fattening): lower; also recorded: smaller increases in TBA values | TBA values (lipid oxidation) during shelf life (Longissimus dorsi muscle [3]; film wrapped meat at 4 and 5° C., days 1-9, 240 ppm ferulic acid last 60 days of fattening): faster oxidation | photographic pattern of changes of meat color during shelf life (Longissimus dorsi muscle [3]; refrigerated storage, 240 ppm ferulic acid last 30 days of fattening, FIG. 3): maintain the red meat color with less changes until day 7 of storage | thickness of the dorsal fat (pigs): decrease in the thickness of the dorsal fat
